Measurements published in patent US11110098B2, “Methods and medicaments for the treatment of renal cell carcinoma” (University of Kansas, priority 2017, dated 2021).

Experiments:
Caki-1 cells [1] = test: Immunostaining of xenograft tumor sections (Ki-67, BRDU, CD31); assay type: in vivo, Nu/Nu mice; details: for BRDU staining / incorporation of tumors compared to vehicle / Ki-67 staining of tumors compared to vehicle / tumor micro-vessel density (CD31 staining): OPC31260 IP, tolvaptan 120 mg/Kg oral, dDAVP 1 μg/Kg IP, daily 28 days
Method: (§1) Female Athymic Nude-Foxn1^nu mice (Nu/Nu mice), 7-8 weeks old and weighing ˜25 g were procured from Envigo/Harlan. All animal studies were carried out according to the protocols approved by the University of Kansas Medical Center Institutional Animal Care and Use Committee. Mice were subcutaneously injected on the right flank region with 1×10^6 Caki-1 cells in 100 μl of DMEM medium. One week after injection, palpable tumors appeared and tumor volume was measured with calipers following the formula, Tumor volume=(length×width)/2. Once the tumor volume reached ˜80-100 mm^3, mice were randomized into sub-groups based on the tumor volume. Animals were administered vehicle, OPC31260 (30 mg/Kg BWt.), OPC31260 (60 mg/Kg BWt) or dDAVP (1 μg/Kg BWt.) and vehicle (saline) by daily intraperitoneal injection, or tolvaptan (120 mg/Kg BWt. in 1% aqueous solution of hydroxypropyl methylcellulose-dose derived from previous study^31) or vehicle by daily oral gavage for 28 days. Body weights and tumor volumes were measured every alternate day. At the end of the study, mice were injected with BRDU (100 mg/Kg BWt. by IP) 90 minutes before sacrifice. Tumors were harvested, photographed and weighed. Tumors were flash frozen or paraffin embedded for further analysis.
Tumor tissues were fixed overnight in 4% paraformaldehyde, dehydrated in a graded alcohol series, and embedded in paraffin for histological analysis as previously described^26. Slides with 5 μm tissue sections were heated in a steamer for 20 min in citrate buffer (pH 6.0) to unmask antigens. Slides were further blocked with 10% goat serum (Invitrogen) and then incubated overnight with primary antibody (V2R, CD31, BRDU, Ki67 and p-H3). After washing the slides with PBST, slides were incubated with appropriate fluorescence-labeled secondary antibody (Invitrogen) and streptavidin HRP conjugated (Invitrogen) secondary antibody for immunoflurorescence and immunohistochemistry, respectively. Slides were also incubated in 4′,6-diamidino-2-phenylindole to visualize nuclei. For immunofluorescence staining, slides were mounted with Fluoromount G (Southern Biotech). For immunohistochemistry, slides were developed with DAB (Vector Laboratories) and counterstained with Harris haematoxylin, dehydrated, and mounted with Permount (Fisher Scientific, Waltham, Mass.). All images were captured using a Nikon 80i microscope (Tokyo, Japan) at the KUMC Imaging Center.

Caki-1 cells [2] = test: TUNEL assay for apoptosis in xenograft tumor sections; assay type: in vivo, Nu/Nu mice; details: OPC31260 IP, tolvaptan 120 mg/Kg oral, dDAVP 1 μg/Kg IP, daily 28 days
Method: as §1
TUNEL assays were performed to check apoptosis using the in situ Cell Death Detection Kit (Roche Applied Science, Indianapolis, Ind.). Briefly, slides with 5-μm tumor sections were treated to a TUNEL reaction mixture containing terminal deoxynucleotidyl transferase and nucleotides, including tetramethylrhodamine-labeled dUTP. Both Dapi stained and TUNEL-positive nuclei were counted as described for proliferating cell nuclear antigen. All images were captured using a Nikon 80i microscope (Tokyo, Japan) in the KUMC Imaging Center.

CCRCC = test: Immunocompetent animal model of spontaneous CCRCC; assay type: in vivo, Vh1Δ/ΔTrp53Δ/ΔRb1Δ/Δ mice; details: treatment from 30 weeks after start of tamoxifen till 56 weeks
Source text: The Vh1^Δ/ΔTrp53^Δ/ΔRb1^Δ/Δ mice (Harlander S et al, Nat Med 2017 23(7):869-877) can spontaneously develop CCRCC. Gene deletion of Vhl and tumor suppressors p53 and Rb 1 will be achieved using a Ksp1.3-CreERT2, tamoxifen-inducible system. For the studies, 6-week old Vh1^Δ/ΔTrp53^Δ/ΔRb1^Δ/ΔKsp1.3-CreERT2 mice will be treated with vehicle (saline) or tamoxifen for 14 days used to obtain wildtype control mice and Vh1^Δ/ΔTrp53^Δ/ΔRb1^Δ/Δ mice with RCC stumors. Starting 30 weeks after start of tamoxifen, the wildtype and Vh1^Δ/ΔTrp53^Δ/ΔRb1^Δ/Δ mice will be treated with vehicle, dDAVP, OPC31260, or tolvaptan till 56 weeks. The effect of V2R activation or inhibition will be monitored by MRI as well as by gross and pathological analysis and of kidneys at sacrifice.

[3] = assay type: in vivo; details: tolvaptan 120 mg/Kg daily oral gavage or dDAVP 1 μg/Kg daily IP, 28 days; for urine osmolality: data not shown
Method: as §1

Caki-1 cells [4] = test: Caki-1 xenograft tumor growth in nude mice; assay type: in vivo, Nu/Nu mice; details: for tumor size and weight at sacrifice versus vehicle: tolvaptan 120 mg/Kg daily oral gavage or dDAVP 1 μg/Kg daily IP
Method: as §1, with “One week after injection, palpable tumors appeared and tumor volume was measured with calipers following the formula, Tumor volume=(length×width)/2.” left out

[5] = test system: pERK1/2, ERK1/2, pCREB, CREB, VEGF; test: Immunoblotting of xenograft tumor lysates; assay type: in vivo, Nu/Nu mice; details: for VEGF protein levels in tumors compared to vehicle: OPC31260 IP, daily 28 days
Method: as §1
Tumors from mouse xenografts and cultured 786-O and Caki-1 cells were homogenized in SDS Laemmli buffer and loaded onto 10% SDS-polyacrylamide agarose gel electrophoresis gels, transferred to nitrocellulose membranes and blocked with 5% milk in TBST^32. Membranes were probed with primary antibody followed by wash and horseradish peroxidase secondary antibody application.

Caki-2 = details: Caki-2, in vitro; cited from earlier work
A498 cells = details: A498, in vitro; cited from earlier work
V1bR = target: T1, V1bR (Homo sapiens, UniProt P47901); details: cited from earlier work
T1 sequence (P47901 1-424): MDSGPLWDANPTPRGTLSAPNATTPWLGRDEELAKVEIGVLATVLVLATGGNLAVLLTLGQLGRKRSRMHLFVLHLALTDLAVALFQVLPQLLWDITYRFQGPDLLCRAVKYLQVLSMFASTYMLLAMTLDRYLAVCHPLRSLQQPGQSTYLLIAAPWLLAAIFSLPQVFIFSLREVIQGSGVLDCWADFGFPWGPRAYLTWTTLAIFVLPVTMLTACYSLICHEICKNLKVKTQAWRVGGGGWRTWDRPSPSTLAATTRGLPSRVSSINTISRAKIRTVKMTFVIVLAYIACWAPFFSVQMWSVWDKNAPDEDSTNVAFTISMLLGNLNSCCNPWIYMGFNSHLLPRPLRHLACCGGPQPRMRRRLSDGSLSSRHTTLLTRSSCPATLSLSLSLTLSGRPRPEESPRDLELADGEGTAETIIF

V2R [6] = target: T2, V2R (Homo sapiens, UniProt P30518); details: cited from earlier work
T2 sequence (P30518 whole entry): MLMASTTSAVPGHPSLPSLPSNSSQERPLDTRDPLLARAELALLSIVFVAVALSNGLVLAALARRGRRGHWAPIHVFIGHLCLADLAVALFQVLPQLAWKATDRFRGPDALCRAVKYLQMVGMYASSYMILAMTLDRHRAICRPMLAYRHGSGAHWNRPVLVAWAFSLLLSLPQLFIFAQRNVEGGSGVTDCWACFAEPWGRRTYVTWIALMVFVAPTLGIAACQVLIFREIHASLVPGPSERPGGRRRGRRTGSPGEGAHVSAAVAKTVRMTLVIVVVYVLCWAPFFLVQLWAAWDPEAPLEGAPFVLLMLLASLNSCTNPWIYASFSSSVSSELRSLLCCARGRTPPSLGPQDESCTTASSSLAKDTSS

[7] = in vivo; cited from earlier work
V2R [8] = target: T2, V2R; details: cited from earlier work; remark: listed apart in the source
[9] = humans; cited from earlier work
[10] = dDAVP 1 μg/Kg daily IP injection, day 28
[11] = OPC31260 30/60 mg/kg IP, tolvaptan 120 mg/Kg oral, dDAVP 1 μg/Kg IP, 28 days
[12] = tolvaptan 120 mg/Kg oral, dDAVP 1 μg/Kg IP

Row | SMILES | BRDU staining / incorporation of tumors compared to vehicle (Caki-1 cells [1]) | Ki-67 staining of tumors compared to vehicle (Caki-1 cells [1]) | tumor micro-vessel density (CD31 staining) (Caki-1 cells [1]) | TUNEL staining of tumors compared to vehicle (Caki-1 cells [2]) | expected tumor burden / tumor growth (CCRCC) | body weight of the mice [3] | toxicity [3] | urine osmolality [3] | tumor size and weight at sacrifice versus vehicle (Caki-1 cells [4]; 28 days) | pCREB levels in tumor lysates [5, 11] | pERK1/2 levels in tumor lysates [5, 11] | VEGF protein levels in tumors compared to vehicle [5, 12] | other results
1 | NC(=O)CC[C@@H]1NC(=O)[C@H](Cc2ccccc2)NC(=O)[C@H](Cc2ccc(O)cc2)NC(=O)CCSSC[C@@H](C(=O)N2CCC[C@H]2C(=O)N[C@H](CCCN=C(N)N)C(=O)NCC(N)=O)NC(=O)[C@H](CC(N)=O)NC1=O [dDAVP, 1-desamino-8-d-arginine vasopressin] | no significant change | significant increase | increased | no significant change | increased tumor burden | did not significantly change | minimal obvious toxicity | increased | larger than in the vehicle group | increased | reduced | did not affect | tumor volume till day 21 (Caki-1 cells [4]; dDAVP 1 μg/Kg daily IP injection): did not increase significantly; tumor volume by day 28, higher than its baseline (Caki-1 cells [4]; [10]): 16 fold; tumor volume by day 28, higher than vehicle group (Caki-1 cells [4]; [10]): 2 fold; ERK1/2 levels in tumor lysates ([5]; dDAVP 1 μg/Kg IP, 28 days): reduced; proliferation on V2R activation (Caki-2): increased proliferation; proliferation on V2R activation (A498 cells): increased proliferation
2 | CCOc1ccc2c(c1)C1(CCC(OCCN3CCOCC3)CC1)C(=O)N2S(=O)(=O)c1ccc(C(=O)NC(C)(C)C)cc1OC (stereo not drawn) [satavaptan] |  |  |  |  |  |  |  |  |  |  |  |  | effect on dDAVP-induced proliferation (Caki-2): abolished dDAVP-induced proliferation; effect on time-dependent increase in cell proliferation (baseline) (Caki-2): did not reduce; effect on dDAVP-induced proliferation (A498 cells): abolished dDAVP-induced proliferation; effect on time-dependent increase in cell proliferation (baseline) (A498 cells): did not reduce
3 | Cc1ccccc1C(=O)Nc1ccc(C(=O)N2CCCC(O)c3cc(Cl)ccc32)c(C)c1 (stereo not drawn) [tolvaptan, N-[4-[(7-chloro-2,3,4,5-tetrahydro-5-hydroxy-1H-1-benzazepin-1-yl)carbonyl]-3-methylphenyl]-2-methylbenzamide] | significantly reduced | significantly reduced | did not appear to alter | increased | significantly suppress tumor growth | did not significantly change | minimal obvious toxicity | significantly reduced | smaller and weighed significantly less | reduced | reduced | significantly reduced | inhibition of V1bR (V1bR): does not inhibit; effect on cell proliferation and apoptosis compared with OPC31260 (Caki-1 cells [1]; tolvaptan 120 mg/Kg oral versus OPC31260 IP): relatively lower than that of OPC31260; intrinsic V2R agonistic effect (V2R [6]): no intrinsic V2R agonistic effect; oral activity compared with OPC31260 [7]: relatively better oral activity than OPC31260; selectivity in blocking [3H]AVP binding to human V2R than V1aR (V2R [8]): 29 fold; mean absolute bioavailability [9]: 56%; tumor volume versus vehicle (Caki-1 cells [4]; tolvaptan 120 mg/Kg daily oral gavage, 28 days): significantly reduced; CREB levels in tumor lysates ([5]; OPC31260 30/60 mg/kg IP, tolvaptan 120 mg/Kg oral, 28 days): reduced
